Each structure is given as a SMILES string.

In general, EC50 refers to the concentration that produces a half-maximal response. Read a high EC50 as a need for much substance.

This test deals with T1, human TREM2 (Homo sapiens, UniProt Q9NZC2).
T1 construct: expressed in transfected cells; host or cells: HEK293T
Kind of test: TREM2 agonist potency by cellular phosphorylation of Syk (AlphaLisa) in HEK293T-hTREM2 cells. The format is cell-based. The procedure: In Vitro Measurement of Triggering Receptor Expressed on Myeloid Cells 2 Activity Using Cellular Phosphorylation of Spleen Tyrosine Kinase (“Syk”) Assays
Measurement of TREM2 agonist potency was done using a HEK cell line expressing human TREM2 and DAP12 (HEK293T-hTREM2 cells). Binding of small molecules to, and activation of, TREM2 increases the phosphorylation of Syk. The resultant levels of Syk phosphorylation are measured using a commercial AlphaLisa reagent kit. To perform the assay, HEK-hTREM2 cells were plated at 14,000 cells per well in a 384 well plate, in 25 μL of complete growth media and incubated at 37° C., 5% CO2 for 20-24 hours.
Prior to the assay, test compounds were diluted in the 384 well plates in assay buffer and allowed to equilibrate for 30 minutes. Growth media was removed from cell plates by inversion on blotting paper, and 25 μL of test articles in assay buffer was added to cells. Cells were incubated for 45 minutes at room temperature. After 45 minutes, assay buffer was removed and 10 μL of lysis buffer was added. Plates were shaken for 20 minutes at 350 RPM at room temperature. After complete lysis, AlphaLisa reagents were added to the lysate, and fluourescence intensity was measured using a Perkin Elmer Envision plate reader. Intensities were used to generate a standard curve, and % activation was calculated. Curve fitting was performed using Prism v9 software, log(agonist) vs response-variable slope (four parameters), and EC50s were calculated from the curve fit.
This assay may be used to test any of the compounds described herein to assess and characterize a compound's ability to act as an agonist of TREM2.
(In Alpha technology, singlet oxygen from a donor bead excites a nearby acceptor bead.)

Setting [1] is: HEK293 cells expressing human TREM2 and DAP12, Table D-2.
Setting [2] is: HEK293 cells expressing human TREM2 and DAP12, Table D.

T1 sequence (Q9NZC2 19-230): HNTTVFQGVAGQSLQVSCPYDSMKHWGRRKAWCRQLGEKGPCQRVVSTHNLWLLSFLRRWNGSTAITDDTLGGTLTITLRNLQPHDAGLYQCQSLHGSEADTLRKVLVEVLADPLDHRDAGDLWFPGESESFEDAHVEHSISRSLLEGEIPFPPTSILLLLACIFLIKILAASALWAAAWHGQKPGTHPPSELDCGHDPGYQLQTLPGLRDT
T1 sequence (O43914 22-113 partner): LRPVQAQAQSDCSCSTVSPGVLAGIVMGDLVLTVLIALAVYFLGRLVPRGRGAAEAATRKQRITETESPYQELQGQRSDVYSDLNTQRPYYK

`Cc1nc2nc([C@H]3CCO[C@@H](c4cnn(C5CC5)c4)C3)nc(-c3c(F)cc(C(F)(F)F)cc3F)c2nc1C` (stereo in doubt) [Example I-1391, 4-[2,6-difluoro-4-(trifluoromethyl)phenyl]-6,7-dimethyl-2-[(2R,4S)-2-(1-cyclopropylpyrazol-4-yl)tetrahydropyran-4-yl]pteridine] gave an EC50 under setting [1] of less than 50 nM.
Compound `Cc1nc2nc([C@H]3CCO[C@@H](c4ccc(=O)n(C)c4)C3)nc(-c3ccc(F)cc3F)c2nc1C` [Example 201] gave an EC50 under setting [2] of 500 to 3000 nM.
The compound `Cc1nc2nc([C@H]3CCO[C@@H](c4cnn(C5CC5)c4)C3)nc(-c3ccc(C(F)(F)F)cc3F)c2nc1C(F)F` [Example I-1593, 2-[(2R,4S)-2-(1-cyclopropylpyrazol-4-yl)tetrahydropyran-4-yl]-6-(difluoromethyl)-4-[2-fluoro-4-(trifluoromethyl)phenyl]-7-methyl-pteridine] came in with an EC50 under setting [1] of less than 50 nM.
For the compound `Cc1nc2nc([C@H]3CCO[C@@H](c4cnn(C5CC5)c4)C3)nc(-c3ccc(C4CC4)cc3F)c2nc1C` [Example I-1187, 2-((2R,4S)-2-(1-cyclopropyl-1H-pyrazol-4-yl)tetrahydro-2H-pyran-4-yl)-4-(4-cyclopropyl-2-fluorophenyl)-6,7-dimethylpteridine], the concentration giving a half-maximal response (EC50) under setting [1] fell in the range of 50 to 500 nM.
`Cc1cnc2c(-c3ccc(F)cc3F)nc(N3C[C@@H](c4cnn(C5CC5)c4)O[C@@H](C)C3)nc2n1` [Example 114, (2R,6S)-2-(1-cyclopropyl-1H-pyrazol-4-yl)-4-(4-(2,4-difluorophenyl)-7-methylpteridin-2-yl)-6-methylmorpholine] had an EC50 under setting [2] of 50 to 500 nM.
Under setting [1], `COc1nc2c(-c3ccc(F)cc3F)nc([C@@H]3CCO[C@H](c4cnn(C5CC5)c4)C3)nc2nc1C` (racemic) [Example I-1653, 4-(2,4-difluorophenyl)-6-methoxy-7-methyl-2-[rac-(2R,4S)-2-(1-cyclopropylpyrazol-4-yl)tetrahydropyran-4-yl]pteridine] returned an EC50 of less than 50 nM.
For the compound `Cc1nc2nc([C@H]3CCO[C@@H](c4cnn(C5CCC5)c4)C3)nc(-c3ccc(F)cc3F)c2nc1C` [Example 148, 2-((2R,4S)-2-(1-cyclobutyl-1H-pyrazol-4-yl)tetrahydro-2H-pyran-4-yl)-4-(2,4-difluorophenyl)-6,7-dimethylpteridine], the EC50 under setting [2] was less than 50 nM.
In turn, `Cc1cnc2c(-c3ccc(Cl)cc3F)nc([C@H]3C[C@@H](c4cnn(C5CC5)c4)O[C@@H](C)C3)nc2n1` [Example 128, 4-(4-chloro-2-fluorophenyl)-2-((2S,4R,6S)-2-(1-cyclopropyl-1H-pyrazol-4-yl)-6-methyltetrahydro-2H-pyran-4-yl)-7-methylpteridine] gave an EC50 under setting [2] of less than 50 nM.
On the same count and under the same terms, the value for `Cc1nc2nc([C@@H]3CCO[C@H](c4cnn(C5CC5)c4)C3)nc(-c3cc(F)c(F)cc3F)c2nc1C` [Example 152, 2-((2S,4R)-2-(1-cyclopropyl-1H-pyrazol-4-yl)tetrahydro-2H-pyran-4-yl)-6,7-dimethyl-4-(2,4,5-trifluorophenyl)pteridine] was 500 to 3000 nM.
Take `COc1ncccc1[C@H]1C[C@@H](c2nc(C34CC(C(F)(F)F)(C3)C4)c3nc(C)c(C)nc3n2)CCO1` [Example 144, 2-((2R,4S)-2-(2-methoxypyridin-3-yl)tetrahydro-2H-pyran-4-yl)-6,7-dimethyl-4-(3-(trifluoromethyl)bicyclo[1.1.1]pentan-1-yl)pteridine]: the concentration giving a half-maximal response (EC50) under setting [2] was 50 to 500 nM.
The same measure, in the same setting: the value for `Cc1nc2nc(N3CCO[C@@H](c4cc[nH]c(=O)c4)C3)nc(-c3ccc(C(F)(F)F)nc3)c2nc1C` [Example 195, (S)-4-(4-(6,7-dimethyl-4-(6-(trifluoromethyl)pyridin-3-yl)pteridin-2-yl)morpholin-2-yl)pyridin-2(1H)-one] was less than 50 nM.
Regarding `Cc1nc2nc(C3CCO[C@@H](c4cnn(C5CC5)c4)C3)nc(C3CC4(C3)CC(F)(F)C4)c2nc1C` (stereo partly drawn) [Example I-1582, 2-[(2R)-2-(1-cyclopropylpyrazol-4-yl)tetrahydropyran-4-yl]-4-(2,2-difluorospiro[3.3]heptan-6-yl)-6,7-dimethyl-pteridine], the 50% effective concentration (EC50) under setting [1] is less than 50 nM.
Under setting [2], `[2H]C([2H])([2H])c1nc2nc([C@H]3CCO[C@@H](c4ccnc(C)c4)C3)nc(-c3ccc(Cl)c(F)c3F)c2nc1C([2H])([2H])[2H]` [Example 137, 4-(4-chloro-2,3-difluorophenyl)-6,7-bis(methyl-d3)-2-((2R,4S)-2-(2-methylpyridin-4-yl)tetrahydro-2H-pyran-4-yl)pteridine] had a 50% effective concentration (EC50) of less than 50 nM.
On to `Cc1nc2nc([C@H]3CCO[C@@H](c4cnn(C5CC5)c4)C3)cc(-c3ccc(Cl)cc3F)c2nc1C` [Example 224, 8-(4-chloro-2-fluorophenyl)-6-((2R,4S)-2-(1-cyclopropyl-1H-pyrazol-4-yl)tetrahydro-2H-pyran-4-yl)-2,3-dimethylpyrido[2,3-b]pyrazine], for which the half-maximal effective concentration (EC50) under setting [2] is less than 50 nM.
The compound `Cc1nc2nc(N3C[C@@H](C)O[C@@H](c4cnn(C5CC5)c4CO)C3)nc(-c3ccc(F)cc3F)c2nc1C` [Example I-1462, [2-cyclopropyl-4-[(2S,6R)-4-[4-(2,4-difluorophenyl)-6,7-dimethyl-pteridin-2-yl]-6-methyl-morpholin-2-yl]pyrazol-3-yl]methanol] had a half-maximal effective concentration (EC50) under setting [1] of 50 to 500 nM.
`Cc1nc2nc(N3CCO[C@@H](c4cnn(C5CC5)c4)C3)nc(-c3ccc4c(c3)CC4)c2nc1C` [Example 240, (S)-4-(4-(bicyclo[4.2.0]octa-1,3,5-trien-3-yl)-6,7-dimethylpteridin-2-yl)-2-(1-cyclopropyl-1H-pyrazol-4-yl)morpholine] came in with an EC50 under setting [2] of 50 to 500 nM.
Still for that read-out and setting: the value for `Cc1nc2nc(C3C[C@@H](C)O[C@@H](c4cn[nH]c4)C3)nc(-c3ccc(F)cc3F)c2nc1C` (stereo partly drawn) [Example 168] was 50 to 500 nM; that for `[2H]C([2H])([2H])c1nc2nc([C@@H]3CCO[C@H](c4cnn(C([2H])([2H])[2H])c4)C3)nc(-c3ccc(C)cc3)c2nc1C([2H])([2H])[2H]` [Example 172, 6,7-bis(methyl-d3)-2-((2S,4R)-2-(1-(methyl-d3)-1H-pyrazol-4-yl)tetrahydro-2H-pyran-4-yl)-4-(p-tolyl)pteridine] was 3000 to 100000 nM.
Regarding `Cc1cnc2c(C34CC(C(F)(F)F)(C3)C4)nc(N3C[C@@H](C)O[C@@H](c4cnn(C5CC5)c4)C3)nc2n1` (racemic) [Example 49, 2-(1-cyclopropyl-1H-pyrazol-4-yl)-6-methyl-4-(7-methyl-4-(3-(trifluoromethyl)bicyclo[1.1.1]pentan-1-yl)pteridin-2-yl)morpholine], under setting [2], the concentration for a half-maximal effect (EC50) is less than 50 nM.
As for `Cc1cnc2c(C34CC(C(F)(F)F)(C3)C4)nc(N3C[C@@H](c4cnn(C5CC5)c4)O[C@@H](C)C3)nc2n1` [Example 125, (2R,6S)-2-(1-cyclopropyl-1H-pyrazol-4-yl)-6-methyl-4-(7-methyl-4-(3-(trifluoromethyl)bicyclo[1.1.1]pentan-1-yl)pteridin-2-yl)morpholine], the half-maximal effective concentration (EC50) under setting [2] is less than 50 nM.
As to `COc1nc2c(-c3ccc(C(F)(F)F)cc3F)nc([C@H]3CCO[C@@H](c4cnn(C5CC5)c4)C3)nc2nc1C` (stereo in doubt) [Example I-1691, 2-((2R,4S)-2-(1-cyclopropyl-1H-pyrazol-4-yl)tetrahydro-2H-pyran-4-yl)-4-(2-fluoro-4-(trifluoromethyl)phenyl)-6-methoxy-7-methylpteridine], the 50% effective concentration (EC50) under setting [1] is less than 50 nM.
The same measure, in the same setting: the value for `CCCc1ccc(-c2nc([C@H]3CCO[C@@H](c4cnn(C5CC5)c4)C3)nc3nc(C)c(C)nc23)c(F)c1` [Example I-1197] was 50 to 500 nM.
Regarding `COc1nc2c(-c3ccc(Cl)cc3F)nc([C@@H]3CCO[C@H](c4cnn(C5CC5)c4)C3)nc2nc1C` (racemic) [Example I-1221, 4-(4-chloro-2-fluoro-phenyl) −6-methoxy-7-methyl-2-[rac-(2S,4R)-2-(1-cyclopropylpyrazol-4-yl)tetrahydropyran-4-yl]pteridine], under setting [1], the EC50 was less than 50 nM.
On the same count and under the same terms, the value for `CCCc1nc2nc(N3C[C@@H](C)O[C@@H](c4cnn(C5CC5)c4)C3)nc(-c3ccc(F)cc3F)c2nc1C` (single isomer, unassigned) [Example I-1288] was less than 50 nM.
For the compound `Cc1nc2nc([C@H]3CCO[C@@H](c4cnn(C5CC5)n4)C3)nc(-c3ccc(F)cc3F)c2nc1C` [Example 155, 2-((2R,4S)-2-(2-cyclopropyl-2H-1,2,3-triazol-4-yl)tetrahydro-2H-pyran-4-yl)-4-(2,4-difluorophenyl)-6,7-dimethylpteridine], the EC50 under setting [2] was 50 to 500 nM.
With `COc1cccc([C@@H]2C[C@H](c3nc(-c4ccc(F)cc4F)c4nc(C)c(C)nc4n3)CCO2)n1` [Example 164, 4-(2,4-difluorophenyl)-2-((2S,4R)-2-(6-methoxypyridin-2-yl)tetrahydro-2H-pyran-4-yl)-6,7-dimethylpteridine], the half-maximal effective concentration (EC50) under setting [2] was 500 to 3000 nM.
In the case of `[2H]C([2H])([2H])c1ccc(-c2nc([C@H]3CCO[C@@H](c4cnn(C([2H])([2H])[2H])c4)C3)nc3nc(C([2H])([2H])[2H])c(C([2H])([2H])[2H])nc23)cc1` [Example 175, 6,7-bis(methyl-d3)-2-((2R,4S)-2-(1-(methyl-d3)-1H-pyrazol-4-yl)tetrahydro-2H-pyran-4-yl)-4-(4-(methyl-d3)phenyl)pteridine], the EC50 under setting [2] was 50 to 500 nM.
